{
  "source": "patent US20080119527A1",
  "about": "“Composition for combating the localized hyperpigmentation of dark skin” (L'OREAL, priority 2006, published 2008)",
  "assay_type_in_all_cases": "cell-based",
  "key": {"[1]": {"tested_on": "Normal human melanocyte/keratinocyte cocultures (NHM/NHK)", "assay": "Protein assay per well (toxicity estimate) in UV-irradiated NHM/NHK coculture", "experimental": "(§1) Normal human melanocyte/keratinocyte cocultures (NHM/NHK) undergo 1 irradiation with UV radiation, repeated daily for 4 days, in the presence or absence of the products to be evaluated. The melanin synthesis is quantified as previously by means of the incorporation of ^14C-thiouracil present in the culture medium. In parallel, a protein assay is performed in each well in order to normalize the melanin synthesis and to estimate the toxicity of the product.\n(§2) For each experimental condition, cell lysates are performed by rinsing the cells with a phosphate buffer (PBS). The proteins are precipitated using 5% trichloracetic acid (TCA) and washed in order to remove the free radioactivity. The proteins are incubated over a weekend at 37° C. using a proteinase K solution at 20 μl/ml in tris HCl-Triton-EDTA buffer.\n(§3) 5 μl of total extract are taken and transferred into a 96-well plate (Wallac). The proteins are assayed using the Protein Assay Reagent assay kit (Pierce). The amount of proteins per well (P) will be used to normalize the melanogenesis. The rest of the extract is filtered on a DEAE Filtermat filter (Wallac). After rinsing, the filter covered with “Meltilex” solid scintillant (Wallac) is transferred into a Costar counting plate. The radioactivity is counted using a Wallac counter and allows quantification of the melanogenesis (M) by measurement of the ^14C-thiouracil (ccpm) incorporated by the cells."}, "[2]": {"tested_on": "Normal human melanocyte/keratinocyte cocultures (NHM/NHK)", "assay": "Photoinduced melanogenesis (UV irradiation) in NHM/NHK coculture, anti-pigmentation protocol", "from_the_text": "Measurement of the photoinduced melanogenesis-modulating effect of the polymer SMA1000HNa® in the presence or absence of ascorbic acid on a coculture of normal human keratinocytes and melanocytes (anti-pigmentation effect).\nas §1\nMore specifically, the melanocytes and keratinocytes are inoculated, respectively, at 80 000 and 250 000 cells per well in 24-well plates in the keratinocyte differentiation medium. The plates are incubated for 3 days at 37° C. before treatment.\nTo avoid photo-oxidation of one of its components, the culture medium is replaced at the time of irradiation with a solution of the products in PBS. The products are placed in contact with the cells for 15 minutes before irradiation.\nThe UV irradiation is performed using a sun simulator. The delivered dose is 7 J/cm^2. Irradiation source: Oriel Xénon 1000W simulator+dichroic filter+WG 320/1.5 mm.\nThe following controls are prepared:\nNon-irradiated control (quantification of the constitutive melanogenesis)\nBlank irradiation control\n2 positive controls of photoinduced melanogenesis inhibition: (100 μM arbutin; 1 μM lucinol).\nAfter irradiation, the PBS is removed and the cells are incubated in a semi-defined culture medium to which are added the products and the ^14C-thiouracil (1 μCi/ml). This treatment is repeated daily for 4 days.\nas §2, §3\nNormalized melanogenesis (NM)=M/P\nPhoto-induced melanogenesis (PIM)=NM (irradiated sample)−NM (non-irradiated sample)\nAnti-pigmenting effect of the product (%)=[[PIM(irradiated+treated sample)−PIM(irradiated sample)]/PIM(irradiated sample)]×100"}, "[3]": {"tested_on": "coculture of normal human keratinocytes and melanocytes", "assay": "Melanogenesis modulation: 14C-thiouracil incorporation in keratinocyte/melanocyte coculture", "experimental": "Measurement of the melanogenesis-modulating effect of the copolymer of styrene/hydrolysed maleic anhydride (50/50) in sodium salt form, at 40% in water (SMA1000HNa® from the company Cray Valley), in the presence or absence of ascorbic acid, on a coculture of normal human keratinocytes and melanocytes.\nThe melanogenesis-modulating effect of the copolymer SMA1000HNa® was tested according to the method described in patent FR-A-2 734 825, and also in the article by R. Schmidt, P. Krien and M. Régnier, Anal. Biochem., 235(2), 113-18, 1996.\nBriefly, the method comprises the steps consisting in:\ncoculturing normal human keratinocytes/melanocytes in a medium containing the tested extract and also a labelled melanin precursor, in the present case C14-labelled thiouracil,\nlysing the cells containing the melanin with protein-degrading enzymes,\npassing the extract obtained through an anion-exchange filter with a pore diameter of less than or equal to 1 μm, and\nevaluating the amount of melanin bound by the filter by means of radioactive assay of the thiouracil.\n(§4) Specifically, 50 000 normal human keratinocytes and 17 000 normal human melanocytes are mixed together and inoculated per well in 96-well plates (Costar type) and cultured for three days in the differentiation medium. During the following three days, the culture medium is replaced daily with the defined test medium (containing the products to be evaluated, and also 3 μCi/ml of C14-labelled thiouracil).\nThe following controls are prepared: • control culture: test medium • positive melanogenesis-stimulating control: test medium+1 mM tyrosine; • 3 positive melanogenesis-inhibiting controls: test medium+, respectively, 500 μM of kojic acid; 100 μM of arbutin; […] of lucinol (2-butyl-1,3-benzenediol).\n(§5) After one night, the cells are rinsed in phosphate buffer (phosphate-buffered saline, PBS). The proteins are precipitated using 5% trichloracetic acid (TCA) and washed in order to remove the free radioactivity. The proteins are incubated overnight at 37° C. using a proteinase K solution at 20 μl/ml in tris-HCl-Triton EDTA buffer.\n(§6) 50 μl of total extract are taken and transferred into a 96-well plate (Wallac) and 150 μl of scintillation liquid (Optiphase “Supermix”) are added. The rest of the extract, i.e. 950 μl, is filtered through a DEAE Filtermat filter. After rinsing, the filter covered with the “Meltilex” solid scintillant is transferred into a counting plate. The radioactivity is counted using a Wallac counter. The results are expressed as a percentage of the control according to the formula: […]\n14CP is the mean of the disintegrations per minute (dpm) of 14C-thiouracil on 3 similar wells treated with a product (P);\n3HP is the mean of the dpm of the corresponding 3H-leucine;\n14CT is the mean of the dpm of 14 C-thiouracil on 3 similar control wells (T);\n3HT is the mean of the dpm of the corresponding 3H-leucine.\nThe ratio of the incorporation of thiouracil to the incorporation of leucine is calculated, to normalize the melanogenesis to the amount of proteins present in the well. This ratio reflects the melanogenesis modulation."}, "[4]": {"tested_on": "coculture of normal human keratinocytes and melanocytes", "assay": "Tritiated leucine incorporation (proliferation and early cytotoxicity indicator) in the coculture", "from_the_text": "as §4\nThe total radioactivity incorporated into the proteins is estimated by the incorporation of tritiated leucine, taken as the proliferation indicator and the early cytotoxicity indicator. On the day before the sample is taken, 1 μCi/ml of tritiated leucine is added to the test medium. It is considered that a product is cytotoxic when the content of tritiated leucine falls by at least 30%.\nas §5, §6"}},
  "data": [
    {"compound": "OC[C@H]1O[C@@H](Oc2ccc(O)cc2)[C@H](O)[C@@H](O)[C@@H]1O", "note": "[Arbutin, arbutin]", "values": [
      {"measurement": "Proteins (%/non-irradiated control)", "setting": "[1]; 100 μM + SSR", "value": "−15", "unit": "%"},
      {"measurement": "Anti-pigmenting effect of the product", "setting": "[2]; 100 μM + SSR", "value": "−111", "unit": "%"},
      {"measurement": "PIM (%/non-irradiated control)", "setting": "[2]; 100 μM + SSR", "value": "−24", "unit": "%"},
      {"measurement": "14C ThioU. (%/Control)", "setting": "[3]; 100 μM", "value": "−49", "unit": "%"},
      {"measurement": "14C ThioU./3H Leu.", "setting": "[3]; 100 μM", "value": "−44", "unit": "%"},
      {"measurement": "3H Leu. (%/Control)", "setting": "[4]; 100 μM", "value": "−8", "unit": "%"}
    ]},
    {"compound": "O=c1cc(CO)occ1O", "note": "[Kojic acid, kojic acid]", "values": [
      {"measurement": "14C ThioU. (%/Control)", "setting": "[3]; 500 μM", "value": "−56", "unit": "%"},
      {"measurement": "14C ThioU./3H Leu.", "setting": "[3]; 500 μM", "value": "−52", "unit": "%"},
      {"measurement": "3H Leu. (%/Control)", "setting": "[4]; 500 μM", "value": "−8", "unit": "%"}
    ]},
    {"compound": "O=C1O[C@H]([C@@H](O)CO)C(O)=C1O", "note": "[vitamin C, ascorbic acid]", "values": [
      {"measurement": "Proteins (%/non-irradiated control)", "setting": "[1]; vitamin C 0.3 mM, UV irradiated", "value": "−12", "unit": "%"},
      {"measurement": "Proteins (%/non-irradiated control)", "setting": "[1]; vitamin C 1 mM, UV irradiated", "value": "−19", "unit": "%"},
      {"measurement": "Proteins (%/non-irradiated control)", "setting": "[1]; vitamin C 2 mM, UV irradiated", "value": "−19", "unit": "%"},
      {"measurement": "Proteins (%/non-irradiated control)", "setting": "[1]; vitamin C 3 mM, UV irradiated", "value": "−22", "unit": "%"},
      {"measurement": "IC50", "setting": "[2]; Homo sapiens, vitamin C alone, read-out: IC50 (anti-pigmenting effect)", "value": "~470", "unit": "µM"},
      {"measurement": "Anti-pigmenting effect of the product", "setting": "[2]; vitamin C 0.3 mM", "value": "−40", "unit": "%"},
      {"measurement": "PIM (%/non-irradiated control)", "setting": "[2]; vitamin C 0.3 mM", "value": 134, "unit": "%"},
      {"measurement": "Anti-pigmenting effect of the product", "setting": "[2]; vitamin C 1 mM", "value": "−65", "unit": "%"},
      {"measurement": "PIM (%/non-irradiated control)", "setting": "[2]; vitamin C 1 mM", "value": 78, "unit": "%"},
      {"measurement": "Anti-pigmenting effect of the product", "setting": "[2]; vitamin C 2 mM", "value": "−90", "unit": "%"},
      {"measurement": "PIM (%/non-irradiated control)", "setting": "[2]; vitamin C 2 mM", "value": 23, "unit": "%"},
      {"measurement": "Anti-pigmenting effect of the product", "setting": "[2]; vitamin C 3 mM", "value": "−100", "unit": "%"},
      {"measurement": "PIM (%/non-irradiated control)", "setting": "[2]; vitamin C 3 mM", "value": 0, "unit": "%"},
      {"measurement": "IC50", "setting": "[3]; Homo sapiens, vitamin C alone, read-out: IC50 (14C ThioU./3H Leu.)", "value": "~230", "unit": "µM"},
      {"measurement": "14C ThioU. (%/Control)", "setting": "[3]; vitamin C 0.1 mM", "value": "−14", "unit": "%"},
      {"measurement": "14C ThioU./3H Leu.", "setting": "[3]; vitamin C 0.1 mM", "value": "−14", "unit": "%"},
      {"measurement": "14C ThioU. (%/Control)", "setting": "[3]; vitamin C 0.3 mM", "value": "−69", "unit": "%"},
      {"measurement": "14C ThioU./3H Leu.", "setting": "[3]; vitamin C 0.3 mM", "value": "−62", "unit": "%"},
      {"measurement": "14C ThioU. (%/Control)", "setting": "[3]; vitamin C 0.4 mM", "value": "−79", "unit": "%"},
      {"measurement": "14C ThioU./3H Leu.", "setting": "[3]; vitamin C 0.4 mM", "value": "−72", "unit": "%"},
      {"measurement": "14C ThioU. (%/Control)", "setting": "[3]; vitamin C 0.6 mM", "value": "−76", "unit": "%"},
      {"measurement": "14C ThioU./3H Leu.", "setting": "[3]; vitamin C 0.6 mM", "value": "−68", "unit": "%"},
      {"measurement": "3H Leu. (%/Control)", "setting": "[4]; vitamin C 0.1 mM", "value": 0, "unit": "%"},
      {"measurement": "3H Leu. (%/Control)", "setting": "[4]; vitamin C 0.3 mM", "value": "−17", "unit": "%"},
      {"measurement": "3H Leu. (%/Control)", "setting": "[4]; vitamin C 0.4 mM", "value": "−23", "unit": "%"},
      {"measurement": "3H Leu. (%/Control)", "setting": "[4]; vitamin C 0.6 mM", "value": "−23", "unit": "%"}
    ]},
    {"compound": "N[C@@H](Cc1ccc(O)cc1)C(=O)O", "note": "[Tyrosine, tyrosine]", "values": [
      {"measurement": "14C ThioU. (%/Control)", "setting": "[3]; 1 mM", "value": 96, "unit": "%"},
      {"measurement": "14C ThioU./3H Leu.", "setting": "[3]; 1 mM", "value": 85, "unit": "%"},
      {"measurement": "3H Leu. (%/Control)", "setting": "[4]; 1 mM", "value": "+6%"}
    ]}
  ]
}
